Positions of bridges follow the written chain, without caps; N, C: chain ends. No end group written: not given here.
How the values were obtained:
delta PKC [1] = target: T1, delta PKC (Homo sapiens, UniProt Q05655); experiment: In vitro kinase assay, histone phosphorylation by delta PKC; format: biochemical
T1 construct: purchased Panvera LLC, now Invitrogen Corporation
Procedure: In another study, the ability of annexin V to increase the catalytic activity of delta PKC in vitro was evaluated. Full-length, recombinant delta PKC (SEQ ID NO:3) and epsilon PKC (SEQ ID NO:6) were separately incubated in the presence of kinase buffer, ATP, or histone, as described in Example 3. Activators of PKC, phosphatidylserine (PS) and diacylglycerol (DAG), were added along with annexin V, JTV-519, a 1,4 benzothiazepine derivative that activates delta PKC (Inagaki, K. et al., Circulation, 101:797 (2000)), or a mixture of annexin V and JTV-519.
200 ng of pure delta PKC or epsilon PKC (Panvera LLC, now Invitrogen Corporation, Carlsbad, Calif.) were incubated in 100 μL kinase buffer (20 mM Tris pH 7.4, 50 mM MgCl2, 0.3 μCi/reaction [γ-^32P]ATP (Amersham Biosciences), 9 μM/reaction ATP (Sigma), 30 μg/reaction myelin basic protein or histone A1 (Sigma); 100 μM lipid vesicle mixture (90% phosphatidylserine (PS): 10% diacylglycerol (DAG)), 1 mM CaCl2, 1 μM JTV519, and/or 20 ng of Annexin V/reaction were added, where applicable. The kinase reaction was stopped by the addition of SDS sample buffer, and extent of histone phosphorylation assessed after separation on 15% SDS-PAGE and transfer onto nitrocellulose membrane by autoradiography.

[2] = target: T2, annexin V and delta PKC interaction (Homo sapiens, UniProt Q05655); experiment: Cross-linking immuno-precipitation of delta PKC probed with anti-annexin V in cardiac myocytes; format: cell-based; settings: cardiac myocytes stimulated with the agent, FIG. 5
T2 construct: endogenous in cells; host or cells: cardiomyocytes
T2 sequence (Q05655 whole entry): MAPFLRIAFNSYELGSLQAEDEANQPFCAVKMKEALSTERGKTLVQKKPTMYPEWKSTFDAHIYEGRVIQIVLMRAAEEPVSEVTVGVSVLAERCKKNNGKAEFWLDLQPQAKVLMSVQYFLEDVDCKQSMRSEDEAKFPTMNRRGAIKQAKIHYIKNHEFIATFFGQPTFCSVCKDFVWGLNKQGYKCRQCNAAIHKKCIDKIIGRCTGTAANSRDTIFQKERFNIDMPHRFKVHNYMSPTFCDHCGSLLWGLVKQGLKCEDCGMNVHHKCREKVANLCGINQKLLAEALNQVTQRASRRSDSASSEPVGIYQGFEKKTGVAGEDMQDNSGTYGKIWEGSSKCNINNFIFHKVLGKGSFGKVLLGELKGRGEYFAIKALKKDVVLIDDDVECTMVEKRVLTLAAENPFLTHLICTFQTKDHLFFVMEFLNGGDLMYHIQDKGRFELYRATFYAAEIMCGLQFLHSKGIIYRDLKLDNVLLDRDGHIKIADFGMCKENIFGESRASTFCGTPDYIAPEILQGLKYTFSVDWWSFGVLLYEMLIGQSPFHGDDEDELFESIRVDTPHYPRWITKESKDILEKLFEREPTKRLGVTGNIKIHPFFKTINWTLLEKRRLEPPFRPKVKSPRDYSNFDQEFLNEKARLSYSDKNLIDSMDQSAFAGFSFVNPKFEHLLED
Procedure: Example 4 describes a study where cardiac myocytes were stimulated with a selected agent and then immuno-precipitated with anti-delta PKC after cross-linking. The cell lysates were then probed with anti-annexin V and visualized with ECL Western blotting. […] The stimulation agent was applied to the cells for times of between 30 seconds to 20 minutes, prior to lysing.
Cardiomyocytes were treated with phorbol 12-myristate 13-acetate (PMA; 10 nM), hydrogen peroxide (H2O2; 5 mM), JTV-519, or delta V1-1 peptide (1 μM) and JTV-519 (1 μM), for times of between 30 seconds to 5 minutes. After the lapsed time, the cells were washed with cold PBS, and homogenized on ice with trituration in homogenization buffer (20 mM Tris pH 7.4, 2 mM EDTA, 10 mM EGTA, 0.25M sucrose, 12 mM O-mercaptoethanol, and protease inhibitor cocktail (Sigma), 0.1% formaldehyde. After 30 min at 4° C., the lysates were quenched with 0.14M glycine for 20 min at 4° C., and samples spun at 14K rpm at 4° C. The supernatant was incubated with 1 μg anti-delta PKC antibody (Santa Cruz Biotechnology, Inc., Santa Cruz, Calif.) for 1 hour, then with proteinG beads (Invitrogen Corporation) for 3 hours at 4° C. The beads where then washed with wash buffer (20 mM Tris pH 7.5, 2 mM EDTA, 100 mM NaCl, 12 mM β-mercaptoethanol, 0.1% Triton), and separated on 7.5% SDS-PAGE, transferred to nitrocellulose, and probed with anti-annexin V (Santa Cruz Biotechnology, Inc., Santa Cruz, Calif.), followed by visualization by ECL Western blotting.

[3] = target: T3, delta PKC/annexin V interaction (Cricetulus griseus, UniProt A0A8C2N0P5); experiment: Cross-linking co-immunoprecipitation of annexin V and delta PKC in CHO cells; format: cell-based
T3 construct: endogenous in cells; host or cells: CHO cells
T3 sequence (A0A8C2N0P5 1-676): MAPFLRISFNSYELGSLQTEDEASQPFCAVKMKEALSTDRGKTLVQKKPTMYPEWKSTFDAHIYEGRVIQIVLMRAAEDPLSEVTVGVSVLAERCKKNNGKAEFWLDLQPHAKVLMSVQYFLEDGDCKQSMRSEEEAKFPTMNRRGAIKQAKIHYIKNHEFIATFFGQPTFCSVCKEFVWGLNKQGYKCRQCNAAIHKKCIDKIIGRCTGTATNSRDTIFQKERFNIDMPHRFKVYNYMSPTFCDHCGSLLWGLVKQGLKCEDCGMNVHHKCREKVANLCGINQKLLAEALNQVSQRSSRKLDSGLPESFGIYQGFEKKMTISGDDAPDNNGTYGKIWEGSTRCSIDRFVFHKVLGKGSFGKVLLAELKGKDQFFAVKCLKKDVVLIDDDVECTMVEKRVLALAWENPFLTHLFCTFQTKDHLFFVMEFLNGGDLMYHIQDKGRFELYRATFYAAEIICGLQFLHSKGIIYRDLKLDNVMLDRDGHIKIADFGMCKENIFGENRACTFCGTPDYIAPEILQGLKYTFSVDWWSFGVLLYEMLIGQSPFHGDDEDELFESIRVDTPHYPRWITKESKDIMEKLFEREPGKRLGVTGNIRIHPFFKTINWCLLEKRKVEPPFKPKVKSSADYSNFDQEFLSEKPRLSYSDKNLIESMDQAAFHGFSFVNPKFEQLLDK
T3 sequence (G3I5A4 1-321 partner): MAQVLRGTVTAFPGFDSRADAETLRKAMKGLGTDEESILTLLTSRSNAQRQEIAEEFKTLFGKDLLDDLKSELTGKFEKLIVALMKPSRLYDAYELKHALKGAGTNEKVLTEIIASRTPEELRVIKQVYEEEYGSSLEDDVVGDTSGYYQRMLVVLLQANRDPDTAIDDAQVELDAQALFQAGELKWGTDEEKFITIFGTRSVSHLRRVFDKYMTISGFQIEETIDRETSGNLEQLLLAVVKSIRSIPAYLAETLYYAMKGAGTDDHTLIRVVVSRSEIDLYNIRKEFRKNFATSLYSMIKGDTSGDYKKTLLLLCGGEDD
Procedure: A similar study was conducted to further evaluate the in vitro, intracellular interactions of delta PKC and annexin V. Cellular interactions of delta PKC/annexin V interaction in CHO cells were stabilized with a cross-linking agent, after stimulation with 10 nM PMA. The complexes formed with delta PKC were then immuno-precipitated and tested for the presence of annexin V. The SDS-PAGE gel is shown in FIG. 6A and a corresponding graph quantifying percent association of annexin V and delta PKC as a function of time is shown in FIG. 6B. […] The interaction is relatively short-lived, and the proteins disassociated after 1 minute of stimulation.
The effect of JTV-519, an activator of delta PKC, on the association of annexin V and delta PKC was also evaluated in this study. Cells were treated with JTV-519, and the association of annexin V and delta PKC was examined using the co-immunoprecipitation procedure described above. […] PMA caused the disassociation of the JTV-induced complex at 30 seconds, the time of maximal PMA-induced association. […] Whereas the cytosolic fraction of the cells contained a steady low level of the complex, the majority of the complex was found in the particulate fraction of the cells, and disappearance from the particulate fraction followed the same time-course as observed in whole cell lysates (compare FIG. 6D bottom panel with FIG. 6B).

delta PKC [4] = target: T4, delta PKC (Cricetulus griseus, UniProt A0A8C2N0P5); experiment: Translocation of delta PKC to the membrane fraction of CHO cells upon PMA stimulation; format: cell-based; settings: CHO cells pretreated 1 μM for 15 minutes, PMA 10 nM for 5 minutes, FIGS. 8A-8B
T4 construct: endogenous in cells; host or cells: CHO cells
T4 sequence (A0A8C2N0P5 1-676): as the sequence (A0A8C2N0P5 1-676) above
Procedure: The ability of the annexin V peptide to block the intracellular interaction of delta PKC and annexin V was illustrated in the following study. The annexin V peptide (SEQ ID NO: 1) was conjugated to a TAT47-57 carrier peptide (SEQ ID NO:26) through an N-terminal Cys-Cys bond, as previously described (Chen, L. et al., Proc. Natl. Acad. Sci. USA, 98:11114-9 ((2001)). This peptide, identified herein as SEQ ID NO:29 and referred to as TAT-AnxV peptide, was used to pretreat (1 μM for 15 minutes) CHO cells prior to stimulation with PMA (10 nM for 5 minutes). For comparison, the annexin V peptide sequence was modified at the Arg (R) residue with a Glu (E) residue, to form a peptide having the sequence LQANEDPD, identified herein as SEQ ID NO:30. Substitution of E for R confers a charge difference between annexin V and delta PKC. This peptide was also attached to a TAT carrier peptide via N-terminal modification with a Cys-Cys bond. The conjugate is referred to herein as TAT-AnxV(R→E) (SEQ ID NO:31) and is denoted in some figures as “EpAnxV.” Cells were similarly pretreated with TAT-AnxV(R→E), prior to stimulation with PMA. As controls, some cells were left untreated and other cells were exposed only to PMA. […]

isolated rat hearts = experiment: Ex vivo ischemia/reperfusion in isolated rat hearts; settings: for infarct size: treated 10 minutes prior to 30 minutes ischemia, 60 minutes reperfusion, FIG. 9A
Procedure: The physiologic impact of disruption of the delta PKC-annexin V complex was evaluated in an ex vivo ischemia/reperfusion study using the annexin V peptide, TAT-AnxV, and its mutant, TAT-AnxV(R→E). As described in Example 7, isolated rat hearts were treated with TAT-AnxV or TAT-AnxV(R→E) for 10 minutes prior to induction of an ischemic episode. The ischemic episode lasted for 30 minutes, at which time flow to the heart was returned for 60 minutes (reperfusion). After the reperfusion period, cardiac effluent was collected and analyzed for creatine phosphokinase (CPK). The hearts were stained and visually inspected for live and dead tissue. Infarct size was measured by taking the average of the dead (white) tissue on both sides of the tissue slice.
A similar study was conducted, except rather than pretreating the isolated hearts with the annexin V peptide, the peptide was administered after the ischemic event and during the initial 10 minutes of the reperfusion period. Hearts were similarly treated with the mutant peptide, TAT-AnxV(R→E).
Rats were anesthetized and their hearts were rapidly removed and cannulated via the aorta for retrograde perfusion (Colbert, M. et al., J. Clin. Invest., 100:1958 (1997)). The hearts were left untreated, or were pretreated with the annexin V peptide, conjugated to TAT, (TAT-AnxV, SEQ ID NO:29) or with its mutant, TAT-AnxV(R→E) (SEQ ID NO:31), for 10 minutes prior to a 30 minutes of ischemia. Ischemia was induced by interrupting flow for 30 minutes and then reestablishing flow for 60 minutes (reperfusion). Cardiac effluent was collected for 15 minutes after reperfusion and assayed for creatine phosphokinase (CPK) using a Sigma kit. Hearts were stained with 2,3,5-triphenyltetrazolium chloride ([…]) to visualize live tissue (red) and dead tissue (white), and infarct size was measured by taking the average of the white area on both sides of the tissue slice (n=3, p<0.05). Results are shown in FIGS. 9A-9B and FIGS. 10A-10B.

T1 sequence (Q05655 whole entry): as the sequence (Q05655 whole entry) above

In the case of `COc1ccc2c(c1)CN(C(=O)CCN1CCC(Cc3ccccc3)CC1)CCS2` [JTV-519], the “catalytic activity of delta PKC (histone phosphorylation)” value (delta PKC [1]; in the presence of PS/DAG, FIG. 4A) is reported as “about the same extent as observed for delta PKC in the presence of PS/DAG alone”, the “catalytic activity of delta PKC (histone phosphorylation)” value (delta PKC [1]; in the presence of annexin V and PS/DAG, FIG. 4A Lane 5) is reported as “blocked the increased catalytic activity observed with annexin V” and the “interaction of annexin V and delta PKC” value [2] is reported as “greatly enhanced”. The “association of annexin V and delta PKC” value ([3]; basal conditions, FIGS. 6A-B) was “full association” and the “cellular localization of the delta PKC-annexin V complex” value ([3]; soluble versus particulate fraction, FIG. 6D) was “most of the δPKC-annexin V complex remained in the soluble fraction”.

In the case of “TAT-AnxV(R→E): conjugate of SEQ ID NO:30 joined to a TAT carrier peptide through an N-terminal cysteine-cysteine bond (YGRKKRRQRRRCCLQANEDPD; disulfide 12-13 (inferred))”, the “translocation of delta PKC to the cell membrane” value (delta PKC [4]) is reported as “lost its inhibitory effect on delta PKC translocation” and the infarct size (isolated rat hearts) is reported as “did not inhibit the delta PKC-induced damage”.

“TAT-AnxV: conjugate of SEQ ID NO:1 joined to a TAT carrier peptide through an N-terminal cysteine-cysteine bond (YGRKKRRQRRRCCLQANRDPD; disulfide 12-13 (inferred))” was tested, and the “translocation of delta PKC to the cell membrane” value (delta PKC [4]) was “blocked the translocation of delta PKC”, the infarct size (isolated rat hearts) was “statistically significant decrease in infarct size” and the “creatine phosphokinase (CPK) released” value (isolated rat hearts; treated 10 minutes prior to ischemia, FIG. 9B) was “reduced level of creatine phosphokinase”.

— patent publication US20090155236A1, “Peptide sequence for modulation of delta protein kinase c” (NATIONAL INSTITUES OF HEALTH (NIH), U.S. DEPT OF HEALTH AND …, priority 2004, published 2009)
